Laboratory results from patent US10597388B2, “Pyridazinone herbicides” (FMC CORPORATION, priority 2014, dated 2020).

Columns and labels:
Test in all cases: Test D controlled growth environment herbicide test, pre- and postemergence
Type in all cases: in vivo
[1] = test system: windgrass (Apera spica-venti)
Text: (§1) Seeds of plant species selected from bluegrass (annual bluegrass, Poa annua), blackgrass (Alopecurus myosuroides), Canada thistle (Cirsium arvense), canarygrass (Phalaris minor), chickweed (common chickweed, Stellaria media), geranium, cutleaf (cutleaf geranium, Geranium dissectum), galium (catchweed bedstraw, Galium aparine), bromegrass, downy (downy bromegrass, Bromus tectorum), field poppy (Papaver rhoeas), field violet (Viola arvensis), foxtail, green (green foxtail, Setaria viridis), deadnettle (henbit deadnettle, Lamium amplexicaule), ryegrass, Italian (Italian ryegrass, Lolium multiflorum), kochia (Kochia scoparia), lambsquarters (Chenopodium album), oilseed rape (Brassica napus), pigweed (Amaranthus retroflexus), chamomile (scentless chamomile, Matricaria inodora), Russian thistle (Salsola kali), speedwell (bird's-eye speedwell, Veronica persica), barley, spring (spring barley, Hordeum vulgare), wheat, spring (spring wheat, Triticum aestivum), buckwheat, wild (wild buckwheat, Polygonum convolvulus), mustard, wild (wild mustard, Sinapis arvensis), oat, wild (wild oat, Avena fatua), radish, wild (wild radish, Raphanus raphanistrum), windgrass (Apera spica-venti), barley, winter (winter barley, Hordeum vulgare), and wheat, winter (winter wheat, Triticum aestivum) were planted into a silt loam soil and treated preemergence with test chemicals formulated in a non-phytotoxic solvent mixture which included a surfactant.
(§2) At the same time, these species were planted in pots containing Redi-Earth® planting medium (Scotts Company, 14111 Scottslawn Road, Marysville, Ohio 43041) comprising spaghnum peat moss, vermiculite, wetting agent and starter nutrients and treated with postemergence applications of the test chemicals formulated in the same manner. Plants ranged in height from 2 to 18 cm (1- to 4-leaf stage). Treated plants and controls were maintained in a controlled growth environment for 14 to 21 d after which time all species were compared to controls and visually evaluated. Plant response ratings, summarized in Table D, are based on a scale of 0 to 100 where 0 is no effect and 100 is complete control. A dash (-) response means no test result.

[2] = test system: barley, winter (winter barley, Hordeum vulgare)
Text: as §1, §2

[3] = test system: pigweed (Amaranthus retroflexus)
Text: as §1, §2

[4] = test system: kochia (Kochia scoparia)
Text: as §1, §2

[5] = test system: ryegrass, Italian (Italian ryegrass, Lolium multiflorum)
Text: as §1, §2

[6] = test system: chickweed (common chickweed, Stellaria media)
Text: as §1, §2

[7] = test system: blackgrass (Alopecurus myosuroides)
Text: as §1, §2

[8] = test system: deadnettle (henbit deadnettle, Lamium amplexicaule)
Text: as §1, §2

[9] = test system: galium (catchweed bedstraw, Galium aparine)
Text: as §1, §2

[10] = test system: foxtail, green (green foxtail, Setaria viridis)
Text: as §1, §2

[11] = test system: lambsquarters (Chenopodium album)
Text: as §1, §2

[12] = test system: speedwell (bird's-eye speedwell, Veronica persica)
Text: as §1, §2

[13] = test system: wheat, winter (winter wheat, Triticum aestivum)
Text: as §1, §2

[14] = Postemergence, 31 g ai/ha, scale 0 to 100 (0 no effect, 100 complete control)
[15] = Postemergence, 125 g ai/ha, visual rating on scale 0 (no effect) to 100 (complete control), 14 to 21 d
[16] = Postemergence, 250 g ai/ha, scale 0 to 100 (0 no effect, 100 complete control)
[17] = Preemergence, 62 g ai/ha, scale 0 to 100 (0 no effect, 100 complete control)
[18] = Preemergence, 125 g ai/ha, scale 0 to 100 (0 no effect, 100 complete control)
[19] = Preemergence, 250 g ai/ha, scale 0 to 100 (0 no effect, 100 complete control)
[20] = postemergence, 62 g ai/ha, scale 0 to 100, 0 no effect, 100 complete control

CCC(=O)Oc1c(C)nn(C)c(=O)c1-c1c(C)sc2ccc(C)cc12 [Compound 42]
45: Plant response rating, Speedwell [12, 15] | Plant response rating, Speedwell [12, 16]
75: Plant response rating, Windgrass [1, 20] | Plant response rating, Kochia [4, 18] | Ryegrass, Italian plant response rating [5, 14] | Blackgrass plant response rating [7, 14] | Plant response rating, Blackgrass [7, 20] | Plant response rating, Speedwell [12, 17]
50: Plant response rating, Foxtail, Green [10, 20] | Plant response rating, Speedwell [12, 20]
35: Plant response rating, Deadnettle [8, 15] | Foxtail, Green plant response rating [10, 14]
98: Plant response rating, Windgrass [1, 16] | Plant response rating (scale of 0 to 100), Lambsquarters ([11]; Preemergence, 31 g ai/ha)
5: Plant response rating, Barley, Winter [2, 18] | Deadnettle plant response rating [8, 14] | Plant response rating, Wheat, Winter [13, 18] | Plant response rating, Wheat, Winter [13, 20]
80: Plant response rating, Ryegrass, Italian [5, 20] | Plant response rating, Blackgrass [7, 15] | Plant response rating (scale of 0 to 100), Blackgrass ([7]; Preemergence, 31 g ai/ha) | Plant response rating, Blackgrass [7, 17] | Plant response rating, Foxtail, Green [10, 16] | Lambsquarters plant response rating [11, 14]
55: Plant response rating, Deadnettle [8, 16]
100: Plant response rating, Windgrass [1, 19] | Plant response rating, Pigweed [3, 16] | Plant response rating, Pigweed [3, 17] | Plant response rating, Pigweed [3, 18] | Plant response rating, Pigweed [3, 19] | Plant response rating, Kochia [4, 16] | Plant response rating, Kochia [4, 19] | Plant response rating, Ryegrass, Italian [5, 17] | Plant response rating, Ryegrass, Italian [5, 18] | Plant response rating, Ryegrass, Italian [5, 19] | Plant response rating, Chickweed [6, 15] | Plant response rating, Chickweed [6, 16] | Plant response rating (scale of 0 to 100), Chickweed ([6]; Preemergence, 31 g ai/ha) | Plant response rating, Chickweed [6, 17] | Plant response rating, Chickweed [6, 18] | Plant response rating, Chickweed [6, 19] | Plant response rating, Chickweed [6, 20] | Blackgrass plant response rating [7, 19] | Galium plant response rating [9, 14] | Plant response rating, Galium [9, 15] | Plant response rating, Galium [9, 16] | Plant response rating, Galium [9, 19] | Plant response rating, Galium [9, 20] | Plant response rating, Foxtail, Green [10, 18] | Plant response rating, Foxtail, Green [10, 19] | Plant response rating, Lambsquarters [11, 17] | Plant response rating, Lambsquarters [11, 18] | Plant response rating, Lambsquarters [11, 19] | Plant response rating, Speedwell [12, 19]
90: Plant response rating, Windgrass [1, 15] | Plant response rating, Pigweed [3, 15] | Plant response rating (scale of 0 to 100), Pigweed ([3]; Preemergence, 31 g ai/ha) | Plant response rating, Pigweed [3, 20] | Plant response rating, Kochia [4, 20] | Plant response rating, Lambsquarters [11, 16]
60: Plant response rating, Kochia [4, 17]
0: Plant response rating, Barley, Winter [2, 14] | Plant response rating, Barley, Winter [2, 15] | Plant response rating (scale of 0 to 100), Barley, Winter ([2]; Preemergence, 31 g ai/ha) | Plant response rating, Barley, Winter [2, 17] | Plant response rating, Barley, Winter [2, 20] | Plant response rating (scale of 0 to 100), Deadnettle ([8]; Preemergence, 31 g ai/ha) | Plant response rating, Deadnettle [8, 17] | Wheat, Winter plant response rating [13, 14] | Plant response rating (scale of 0 to 100), Wheat, Winter ([13]; Preemergence, 31 g ai/ha) | Plant response rating, Wheat, Winter [13, 17]
85: Plant response rating, Windgrass [1, 17] | Plant response rating, Windgrass [1, 18] | Pigweed plant response rating [3, 14] | Plant response rating, Ryegrass, Italian [5, 15] | Plant response rating, Ryegrass, Italian [5, 16] | Plant response rating, Blackgrass [7, 16] | Plant response rating, Galium [9, 17] | Plant response rating, Lambsquarters [11, 15] | Plant response rating, Lambsquarters [11, 20]
70: Windgrass plant response rating [1, 14] | Plant response rating (scale of 0 to 100), Windgrass ([1]; Preemergence, 31 g ai/ha) | Kochia plant response rating [4, 14] | Plant response rating (scale of 0 to 100), Galium ([9]; Preemergence, 31 g ai/ha) | Plant response rating (scale of 0 to 100), Speedwell ([12]; Preemergence, 31 g ai/ha) | Plant response rating, Speedwell [12, 18]
10: Plant response rating, Barley, Winter [2, 16] | Speedwell plant response rating [12, 14] | Plant response rating, Wheat, Winter [13, 15]
95: Plant response rating, Kochia [4, 15] | Plant response rating (scale of 0 to 100), Ryegrass, Italian ([5]; Preemergence, 31 g ai/ha) | Chickweed plant response rating [6, 14] | Plant response rating, Blackgrass [7, 18] | Plant response rating, Galium [9, 18]
65: Plant response rating, Foxtail, Green [10, 15] | Plant response rating, Foxtail, Green [10, 17]
20: Plant response rating (scale of 0 to 100), Kochia ([4]; Preemergence, 31 g ai/ha)
15: Barley, Winter plant response rating [2, 19] | Plant response rating, Deadnettle [8, 19] | Plant response rating, Wheat, Winter [13, 16] | Plant response rating, Wheat, Winter [13, 19]
25: Plant response rating, Deadnettle [8, 18] | Plant response rating, Deadnettle [8, 20]
30: Plant response rating (scale of 0 to 100), Foxtail, Green ([10]; Preemergence, 31 g ai/ha)
